As usually defined, the inhibition is the change of the read-out against control, counted positive when it falls.

Data on two molecules can be found in article PMC8292346, “Dysfunction of the key ferroptosis-surveilling systems hypersensitizes mice to tubular necrosis during acute kidney injury” (Nature Communications, 2021).

“And” between values parts separate entries of the source, which are not always exact repeats. Identical values can stand only once.

For data set [1], the system named is NIH3T3 cells. The data set can be described thus: TZ-induced necroptosis, 7-AAD/annexin V flow cytometry. The format is cell-based, murine. The note with it: NIH3T3, TZ 16 h. On the procedure: To induce necroptosis in a human cell line, HT29 cells were stimulated at the indicated time points with 20 ng/ml human TNFα (Biolegend), 1 μM SMAC-mimetics (Birinapant, Chemietek), and 20 μM zVAD-fmk (Selleckchem, herein referred to as zVAD). For the induction of necroptosis in NIH3T3 cells, cells were incubated with 20 ng/ml TNF-α and 20 μM zVAD for indicated time points. […] Cells were seeded in six-well plates or petri dishes. […] After indicated time points, cells were collected and prepared for flow cytometry, immunoblotting, and/or LDH release assays.
Cells were harvested and the pellets were washed twice in PBS and stained with 5 μl of 7-AAD (BD Biosciences) and 5 μl of annexin-V-FITC (BD Biosciences) added to 100 μl annexin-V binding buffer (BD Biosciences). After 15 min, cells were recorded on the LSRII with the FACS Diva 6.1.1 software (BD Biosciences) and subsequently analyzed with the FlowJo v10 software (Tree Star).
A general note: In flow cytometry, cells or beads pass a laser one at a time.

In data set [2] the test system is Ca2+ channel (L, dihydropyridine site). The data set can be described thus: Off-target radioligand binding screen. The note with it: Nec-1f 10 µM.
Data set [3] relates to KV channel. The data set can be described thus: Off-target radioligand binding screen. The note with it: Nec-1f 10 µM.
The target of data set [4] is β1(h) (Homo sapiens, UniProt P08588). Description: Off-target radioligand binding screen. The note with it: read-out: β1(h) (#): inhibition of radioligand binding.
For data set [5], the target named is 5-HT3(h) (Homo sapiens, UniProt P46098). Description: Off-target radioligand binding screen. The note with it: read-out: 5-HT3(h) ($): inhibition of radioligand binding.
In data set [6] the target is MAO-A (Rattus norvegicus, UniProt P21396). The data set can be described thus: Off-target radioligand binding screen. The note with it: read-out: MAO-A ($): inhibition of radioligand binding.
In data set [7] the target is 5-HT2B(h) (Homo sapiens, UniProt P41595). The data set can be described thus: Off-target radioligand binding screen. The note with it: read-out: 5-HT2B(h) (#): inhibition of radioligand binding.
Data set [8] deals with H1(h) (Homo sapiens, UniProt P35367). Description: Off-target radioligand binding screen. The note with it: read-out: H1(h) ($): inhibition of radioligand binding.
Data set [9] addresses D1(h) (Homo sapiens, UniProt P21728). The data set can be described thus: Off-target radioligand binding screen. The note with it: read-out: D1(h) ($): inhibition of radioligand binding.
In data set [10] the test system is C57Bl/6 N mice. Description: Bilateral kidney ischemia-reperfusion injury, moderate model (30 min ischemia). The format is in vivo, mouse. An excerpt: Otherwise, the two models are identical.
Data set [11] is described as follows: Stability in human plasma. The note with it: 1 µM, 37 °C. The format is in vitro ADME. The protocol: Plasma stability is defined as the percentage of parent compound remaining in plasma over the time. Here, incubations were carried out in 5 aliquots of 70 µl each (one for each time point), in duplicates. […] The percentage of the test compounds remaining after incubation in plasma and their half-lives (T1/2) was calculated.

Data set [12] in a line: Inhibited co-autoxidation of cumene and STY-BODIPY (radical-trapping antioxidant activity). The note with it: AIBN-initiated; even at 5-fold higher concentration than PMC.
In data set [13] the target is M3(h) (Homo sapiens, UniProt P20309). Description: Off-target radioligand binding screen. The note with it: read-out: M3(h) ($): inhibition of radioligand binding.
Data set [14] has as its system Na+ channel (site 2). Description: Off-target radioligand binding screen. The note with it: Nec-1f 10 µM.
[15] abbreviates: Nec-1f - sham, individual animals.
Where [16] appears, read: Nec-1f, 48 h after onset of reperfusion, individual animals.
Setting [17] is: Nec-1f, 72 h after onset of reperfusion, individual animals.
The mark [18] stands for this setting: kidney IRI, 1.65 mg/kg i.p. 15 min before.
The mark [19] stands for this setting: mice, bilateral kidney IRI, Nec-1f 1.65 mg/kg i.p. 15 min before, individual animals.
Where [20] appears, read: mice, kidney IRI, Nec-1f, individual animals.

5-HT3(h), sequence (P46098 24-478): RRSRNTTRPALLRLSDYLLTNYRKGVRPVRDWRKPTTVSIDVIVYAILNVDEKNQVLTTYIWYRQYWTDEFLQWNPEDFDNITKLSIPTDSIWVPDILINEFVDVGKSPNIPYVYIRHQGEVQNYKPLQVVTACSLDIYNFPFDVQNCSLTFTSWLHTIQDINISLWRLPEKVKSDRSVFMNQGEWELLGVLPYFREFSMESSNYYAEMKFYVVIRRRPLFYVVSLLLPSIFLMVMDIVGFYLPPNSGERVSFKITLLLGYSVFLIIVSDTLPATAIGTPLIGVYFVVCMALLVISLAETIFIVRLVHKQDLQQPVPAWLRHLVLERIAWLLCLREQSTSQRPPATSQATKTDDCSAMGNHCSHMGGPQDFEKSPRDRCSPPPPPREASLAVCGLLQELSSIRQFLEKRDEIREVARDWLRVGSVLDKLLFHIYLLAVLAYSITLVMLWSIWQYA
5-HT2B(h), sequence (P41595 whole entry): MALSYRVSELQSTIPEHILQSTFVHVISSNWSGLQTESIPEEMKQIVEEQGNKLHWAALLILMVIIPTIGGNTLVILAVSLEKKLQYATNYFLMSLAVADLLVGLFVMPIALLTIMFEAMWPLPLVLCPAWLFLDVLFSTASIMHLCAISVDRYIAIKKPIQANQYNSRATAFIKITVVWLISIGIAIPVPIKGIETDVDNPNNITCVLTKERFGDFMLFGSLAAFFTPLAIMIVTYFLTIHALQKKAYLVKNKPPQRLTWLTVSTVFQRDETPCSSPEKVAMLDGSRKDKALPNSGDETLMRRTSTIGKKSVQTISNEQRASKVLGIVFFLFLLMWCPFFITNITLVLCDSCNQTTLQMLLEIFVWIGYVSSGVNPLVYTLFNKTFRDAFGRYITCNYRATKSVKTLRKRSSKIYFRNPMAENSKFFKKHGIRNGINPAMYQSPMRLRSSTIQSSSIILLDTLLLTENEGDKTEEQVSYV
H1(h), sequence (P35367 whole entry): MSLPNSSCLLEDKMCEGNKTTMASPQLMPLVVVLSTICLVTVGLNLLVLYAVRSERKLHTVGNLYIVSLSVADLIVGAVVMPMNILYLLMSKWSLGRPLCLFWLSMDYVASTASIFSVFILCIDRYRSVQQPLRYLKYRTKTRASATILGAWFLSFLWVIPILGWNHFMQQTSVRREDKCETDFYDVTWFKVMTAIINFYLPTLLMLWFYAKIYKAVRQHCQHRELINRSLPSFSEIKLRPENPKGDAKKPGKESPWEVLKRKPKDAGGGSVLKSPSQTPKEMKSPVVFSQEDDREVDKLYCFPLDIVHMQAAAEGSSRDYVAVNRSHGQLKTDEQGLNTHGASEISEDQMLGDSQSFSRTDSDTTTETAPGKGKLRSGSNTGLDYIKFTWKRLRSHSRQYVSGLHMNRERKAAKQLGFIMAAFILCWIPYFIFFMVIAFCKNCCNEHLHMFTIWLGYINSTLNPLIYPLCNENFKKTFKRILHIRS
D1(h), sequence (P21728 whole entry, the tested form may be a part): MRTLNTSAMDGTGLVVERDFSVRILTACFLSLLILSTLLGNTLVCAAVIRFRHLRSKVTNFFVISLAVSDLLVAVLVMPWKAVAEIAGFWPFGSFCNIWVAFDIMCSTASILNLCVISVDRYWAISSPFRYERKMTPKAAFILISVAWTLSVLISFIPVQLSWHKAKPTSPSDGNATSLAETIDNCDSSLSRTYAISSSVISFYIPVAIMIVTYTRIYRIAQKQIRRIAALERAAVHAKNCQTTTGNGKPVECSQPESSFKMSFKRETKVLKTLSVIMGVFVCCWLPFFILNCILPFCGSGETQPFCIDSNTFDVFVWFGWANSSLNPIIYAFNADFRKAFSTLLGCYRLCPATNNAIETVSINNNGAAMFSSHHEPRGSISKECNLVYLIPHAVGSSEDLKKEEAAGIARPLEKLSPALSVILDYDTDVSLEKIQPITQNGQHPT
M3(h), sequence (P20309 whole entry): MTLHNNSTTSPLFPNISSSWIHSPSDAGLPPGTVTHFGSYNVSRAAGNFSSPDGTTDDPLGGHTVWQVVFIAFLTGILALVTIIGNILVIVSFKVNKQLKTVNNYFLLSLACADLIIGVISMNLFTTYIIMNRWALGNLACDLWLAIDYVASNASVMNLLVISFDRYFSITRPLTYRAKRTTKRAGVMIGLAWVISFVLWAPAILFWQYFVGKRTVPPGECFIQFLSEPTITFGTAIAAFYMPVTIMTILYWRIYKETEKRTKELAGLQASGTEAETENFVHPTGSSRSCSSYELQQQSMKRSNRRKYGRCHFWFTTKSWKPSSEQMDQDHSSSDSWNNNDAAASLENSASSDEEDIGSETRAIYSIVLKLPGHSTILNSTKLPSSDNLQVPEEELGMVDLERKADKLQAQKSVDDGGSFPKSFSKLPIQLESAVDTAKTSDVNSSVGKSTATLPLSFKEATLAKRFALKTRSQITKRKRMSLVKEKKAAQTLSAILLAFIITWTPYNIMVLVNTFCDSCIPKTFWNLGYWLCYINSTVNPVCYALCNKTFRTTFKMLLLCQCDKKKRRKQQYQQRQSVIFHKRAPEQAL
β1(h), sequence (P08588 whole entry): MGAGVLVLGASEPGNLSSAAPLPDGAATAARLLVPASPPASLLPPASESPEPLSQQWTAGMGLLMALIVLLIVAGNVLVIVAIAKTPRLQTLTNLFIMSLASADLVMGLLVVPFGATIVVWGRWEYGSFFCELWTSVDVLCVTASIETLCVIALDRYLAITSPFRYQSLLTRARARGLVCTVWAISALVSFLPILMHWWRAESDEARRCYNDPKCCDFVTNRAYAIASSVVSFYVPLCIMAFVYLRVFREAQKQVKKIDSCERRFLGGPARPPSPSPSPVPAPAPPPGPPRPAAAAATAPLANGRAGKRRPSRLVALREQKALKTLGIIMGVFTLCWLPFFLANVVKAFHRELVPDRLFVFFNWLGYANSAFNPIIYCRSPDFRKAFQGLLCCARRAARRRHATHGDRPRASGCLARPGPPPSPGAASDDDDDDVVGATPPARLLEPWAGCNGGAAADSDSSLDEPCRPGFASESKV
MAO-A, sequence (P21396 whole entry): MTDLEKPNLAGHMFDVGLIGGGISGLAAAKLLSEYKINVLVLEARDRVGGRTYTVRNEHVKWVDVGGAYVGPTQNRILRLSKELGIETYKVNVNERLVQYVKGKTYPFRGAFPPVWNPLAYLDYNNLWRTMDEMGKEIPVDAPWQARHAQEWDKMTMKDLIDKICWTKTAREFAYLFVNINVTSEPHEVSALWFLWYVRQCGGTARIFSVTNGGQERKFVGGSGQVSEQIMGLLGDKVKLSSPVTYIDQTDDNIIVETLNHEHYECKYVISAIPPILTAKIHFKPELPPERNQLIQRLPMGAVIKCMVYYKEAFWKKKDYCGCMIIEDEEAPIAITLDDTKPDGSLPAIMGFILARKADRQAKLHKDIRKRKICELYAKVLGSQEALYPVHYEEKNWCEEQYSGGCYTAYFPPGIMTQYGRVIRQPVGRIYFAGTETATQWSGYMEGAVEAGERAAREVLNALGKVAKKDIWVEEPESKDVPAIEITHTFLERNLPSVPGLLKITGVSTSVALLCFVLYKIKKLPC

Take `CCOC(=O)c1ccc(NC2CCCCC2)c(N)c1` [Fer-1, ferrostatin-1]: the “7-AAD/annexin V flow cytometry, source data of bar graph Fig2i” value in data set [1] is 7.78% and 9.49% and 6.87% and 10.1%.
For the molecule `CN1C(=O)C(Cc2c[nH]c3c(Cl)cccc23)NC1=S` (stereo not drawn) [Nec-1f], the “Ca2+ channel (L, dihydropyridine site) ($): inhibition of radioligand binding” value in [2] came to 40%. Moreover, in [3], the “KV channel ($): inhibition of radioligand binding” value came to 1.7%. Moreover, the inhibition at 10 µM in data set [4] was 3.7%; in data set [5], 10.4%; in data set [6] it was 44.4%; in [7], 16.7%; in data set [8], 9.3%; in [9] it was 2.3%. Moreover, the inhibition at 10 µM in [13] is -4.9%. The Serum creatinine in data set [10] (setting [15]) is 23 µmol/L and 17 µmol/L; in data set [10] (setting [16]), 28 µmol/L and 95 µmol/L and 52 µmol/L and 60 µmol/L and 40 µmol/L and 74 µmol/L and 33 µmol/L and 35 µmol/L and 39 µmol/L; in data set [10] (setting [17]), 79 µmol/L and 31 µmol/L and 63 µmol/L and 46 µmol/L and 53 µmol/L and 44 µmol/L. Besides, the Serum urea in data set [10] (setting [15]) was 5.5 mmol/L and 5.6 mmol/L; in data set [10] (setting [16]) it was 19.1 mmol/L and 76 mmol/L and 75 mmol/L and 43.6 mmol/L and 50.1 mmol/L and 32.1 mmol/L and 57 mmol/L and 22.5 mmol/L and 16.7 mmol/L and 34.1 mmol/L and 24.8 mmol/L; in data set [10] (setting [17]) it was 30.9 mmol/L and 8.8 mmol/L and 20.2 mmol/L and 18.9 mmol/L and 37.3 mmol/L and 16.4 mmol/L. Also, in data set [10] (setting [18]), the “4HNE staining of renal tissue” value is “attenuated”. Besides, the “Infiltration of macrophages (F4/80) in the renal medulla” value in data set [10] (setting [18]) is “significantly less infiltration”. The “Serum creatinine vs vehicle” value in [10] (setting [18]) is reported as “lower than in the vehicle-treated mice”. In addition, the “Serum urea vs vehicle” value in data set [10] (setting [18]) is listed as “lower than in the vehicle-treated mice”. Moreover, the “Tubular damage vs vehicle” value in [10] (setting [18]) is “lower than in the vehicle-treated mice”. Further, in data set [10] (kidney IRI, column headed Nec-1f), the “4HNE score, arbitrary [0-3] (sheet FigS2d)” value is 1.6 and 1.4. Besides, the “4HNE staining score, arbitrary [0-3]” value in data set [10] (setting [19]) was 0.6 and 1.6 and 1.8 and 0.8 and 1.2. Moreover, in data set [10] (setting [19]), the “Tubular damage score, arbitrary [0-10]” value is 5 and 7 and 4. Besides, the “F4/80 positivity, quantitative (Fig6i)” value in data set [10] (setting [20]) was 8.8 cells/field and 7.8 cells/field and 20.3 cells/field and 16.2 cells/field and 20.8 cells/field. Moreover, the “F4/80 positivity, quantitative (Fig6h)” value in data set [10] (setting [20]) was 3.45 cells/field and 6.077 cells/field and 9.25 cells/field and 7.125 cells/field and 9.0625 cells/field. The “Human plasma stability, parent compound remaining” value in data set [11] (0 min) is given as 100%; in [11] (20 min), 97%; in data set [11] (40 min) it was 93%; in data set [11] (60 min) it was 89%; in data set [11] (120 min), 82%. Besides, the “Radical-trapping activity in cumene/STY-BODIPY co-autoxidation” value in data set [12] was “no activity”. Further, in data set [14], the “Na+ channel (site 2) ($): inhibition of radioligand binding” value is reported as -14.5%.
